Test system: vascular smooth muscle cell (SMC)
Assay: Effect on proliferation of vascular smooth muscle cell (SMC), XTT assay
Format: cell-based
Details: 1 uM; XTT absorbance at 450 nm at 1, 4 and 7 days; versus untreated control (FIG. 1)
Description: As cells used in a cell culture, the vascular smooth muscle cell (SMC) which is a smooth muscle cell, and the human umbilical vein endothelial cell (HUVEC) which is the cell for promoting vascular re-endothelialization were purchased from Korea Cell Line Bank, respectively. The cell culture was performed by culturing the vascular smooth muscle cell (SMC) and the human umbilical vein endothelial cell (HUVEC) in Dulbecoco's modified eagle medium (DMEM) with 10% fetal bovine serum (FBS) under conditions of 37° C. and 5% CO2. […]
(§1) 5×10^4 of SMC cells cultured according to Example 2 were cultured in the 24-well cell culture plate and then treated with 1 uM of the peptide compound prepared by Example 2 (hereinafter, referred to as ‘EVR-P’). […] After the reaction, 200 ul of the culture medium was transferred from each well to a 96 well cell culture dish, and degree of color change was measured from absorbance at a 450 nm wavelength by a spectroscopy.
as §1, with “the known Everolimus (EVR)(LC Laboratories).” for “the peptide compound prepared by Example 2 (hereinafter, referred to as ‘EVR-P’).”, “to the” for “to a”

Compound: CO[C@H]1C[C@@H]2CC[C@@H](C)[C@@](O)(O2)C(=O)C(=O)N2CCCC[C@H]2C(=O)O[C@H]([C@H](C)C[C@@H]2CC[C@@H](OCCO)[C@H](OC)C2)CC(=O)[C@H](C)/C=C(\C)[C@@H](O)[C@@H](OC)C(=O)[C@H](C)C[C@H](C)/C=C/C=C/C=C/1C [EVR, Everolimus]
- SMC cell proliferation: cell proliferation was inhibited
